Here are results for nine compounds from ChEMBL document CHEMBL6134892, “Discovery and Evaluation of DA-302168S as an Efficacious Oral Small-Molecule Glucagon-Like Peptide-1 Receptor Agonist” (J Med Chem, 2025).

In data set [1] the target is Glucagon-like peptide 1 receptor (Homo sapiens, UniProt P43220). Briefly: Agonist activity at human GLP-1R expressed in HEK293 cells coexpressing CRE LUC incubated for 5 hrs by luciferase based microplate reader analysis. In kind it is functional, cell-based.
Chain of Glucagon-like peptide 1 receptor (P43220 whole entry): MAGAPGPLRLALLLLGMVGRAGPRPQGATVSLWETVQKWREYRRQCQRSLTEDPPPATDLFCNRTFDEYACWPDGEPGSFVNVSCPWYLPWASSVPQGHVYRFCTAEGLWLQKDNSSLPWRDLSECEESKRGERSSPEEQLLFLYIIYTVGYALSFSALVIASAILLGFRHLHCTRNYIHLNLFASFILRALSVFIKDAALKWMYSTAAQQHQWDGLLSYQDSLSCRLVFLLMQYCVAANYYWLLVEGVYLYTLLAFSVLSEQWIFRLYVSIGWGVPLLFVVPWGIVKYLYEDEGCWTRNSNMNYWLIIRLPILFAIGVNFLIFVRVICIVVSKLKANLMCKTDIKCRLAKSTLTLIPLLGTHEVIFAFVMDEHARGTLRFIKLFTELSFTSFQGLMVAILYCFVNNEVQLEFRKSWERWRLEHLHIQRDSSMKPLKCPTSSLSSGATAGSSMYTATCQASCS
Data set [2] deals with hERG (KCNH2) (Homo sapiens, UniProt Q12809). As to the kind of experiment: Inhibition of human ERG at 30 uM by whole-cell patch clamp technique relative to control. In kind it is toxicity. (In general: The patch-clamp technique gives a direct electrical read-out from membranes.)
Chain of hERG (KCNH2) (Q12809 whole entry): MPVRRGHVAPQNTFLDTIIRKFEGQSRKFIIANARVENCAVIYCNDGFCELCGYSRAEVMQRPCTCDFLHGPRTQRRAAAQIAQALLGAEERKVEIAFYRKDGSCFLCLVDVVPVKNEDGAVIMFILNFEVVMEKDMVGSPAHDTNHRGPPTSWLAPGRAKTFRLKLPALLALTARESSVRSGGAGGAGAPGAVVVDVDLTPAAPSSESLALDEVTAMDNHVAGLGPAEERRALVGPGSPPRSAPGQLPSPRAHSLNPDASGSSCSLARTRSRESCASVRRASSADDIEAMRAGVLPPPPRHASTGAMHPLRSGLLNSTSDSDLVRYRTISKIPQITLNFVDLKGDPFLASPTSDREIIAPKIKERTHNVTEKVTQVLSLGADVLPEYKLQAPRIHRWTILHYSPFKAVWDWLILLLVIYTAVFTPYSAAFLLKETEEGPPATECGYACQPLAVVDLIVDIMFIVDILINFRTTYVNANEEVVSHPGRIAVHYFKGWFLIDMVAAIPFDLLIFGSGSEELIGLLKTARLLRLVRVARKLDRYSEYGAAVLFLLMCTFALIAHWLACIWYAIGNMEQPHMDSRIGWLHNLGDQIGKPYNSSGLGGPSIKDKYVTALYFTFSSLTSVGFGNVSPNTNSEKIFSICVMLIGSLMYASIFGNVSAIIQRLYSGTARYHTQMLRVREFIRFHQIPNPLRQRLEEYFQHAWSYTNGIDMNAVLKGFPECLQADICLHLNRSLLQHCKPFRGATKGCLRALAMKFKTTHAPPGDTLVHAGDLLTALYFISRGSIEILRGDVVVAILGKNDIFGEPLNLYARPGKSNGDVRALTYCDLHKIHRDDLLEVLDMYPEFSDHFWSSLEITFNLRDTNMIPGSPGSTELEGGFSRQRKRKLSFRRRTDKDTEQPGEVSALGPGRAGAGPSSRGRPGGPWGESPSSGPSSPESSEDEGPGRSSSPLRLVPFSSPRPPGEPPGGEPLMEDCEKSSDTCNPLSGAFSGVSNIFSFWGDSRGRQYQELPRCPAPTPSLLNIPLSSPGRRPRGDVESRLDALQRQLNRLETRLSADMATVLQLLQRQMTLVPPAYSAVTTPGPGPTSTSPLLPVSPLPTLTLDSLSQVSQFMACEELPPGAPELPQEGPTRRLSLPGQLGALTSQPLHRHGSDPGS
Data set [3] concerns the target Voltage-gated inwardly rectifying potassium channel KCNH2 (Homo sapiens, UniProt Q12809). Briefly: Inhibition of human ERG by whole-cell patch clamp technique. In kind it is toxicity.
Data set [4] can be described thus: Metabolic stability in human liver microsomes assessed as intrinsic clearance at 1 uM measured after 5 to 45 mins in presence of NADPH by LC-MS/MS analysis. It counts as ADME, Microsome. The conditions noted are these: time 5-45 min, read-out: CLH. In general terms: Liver microsomes are vesicles of endoplasmic reticulum, rich in cytochrome P450 enzymes.
Data set [5] in a line: Metabolic stability in human liver microsomes assessed as half life at 1 uM measured after 5 to 45 mins in presence of NADPH by LC-MS/MS analysis. It counts as ADME, Microsome. The conditions noted are these: time 5-45 min.
Data set [6] can be described thus: Metabolic stability in human liver microsomes assessed as hepatic clearance at 1 uM measured after 5 to 45 mins in presence of NADPH by LC-MS/MS analysis. It counts as ADME, Microsome. The settings on record: time 5-45 min.
Data set [7] can be described thus: Tmax in Sprague-Dawley rat at 10 mg/kg, po measured up to 24 hrs by LC-MS/MS analysis. It counts as ADME, organism-based. The settings on record: in vivo.
The target in data set [8] is T1, Cytochrome P450 2C8 (Homo sapiens, UniProt P10632).
T1 sequence (P10632 whole entry): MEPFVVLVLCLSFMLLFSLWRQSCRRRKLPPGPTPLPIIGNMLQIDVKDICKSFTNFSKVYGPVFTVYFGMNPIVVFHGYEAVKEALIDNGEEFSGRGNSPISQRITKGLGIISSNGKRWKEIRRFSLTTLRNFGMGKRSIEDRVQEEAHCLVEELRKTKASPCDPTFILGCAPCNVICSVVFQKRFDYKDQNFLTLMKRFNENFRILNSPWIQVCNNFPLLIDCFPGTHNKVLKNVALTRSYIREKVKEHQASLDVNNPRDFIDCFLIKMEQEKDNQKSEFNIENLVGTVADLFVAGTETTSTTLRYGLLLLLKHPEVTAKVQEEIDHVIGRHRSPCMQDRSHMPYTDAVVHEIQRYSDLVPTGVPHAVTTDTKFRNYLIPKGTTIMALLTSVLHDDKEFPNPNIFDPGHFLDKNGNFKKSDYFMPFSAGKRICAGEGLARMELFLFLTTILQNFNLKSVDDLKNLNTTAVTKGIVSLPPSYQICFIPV
As to the kind of experiment: Inhibition of CYP2C8 in human liver microsomes incubated for 20 mins in presence of NADPH by LC-MS/MS analysis. In kind it is ADME, Microsome.

Data set [9] has as its target Cytochrome P450 2C9 (Homo sapiens, UniProt P11712). Briefly: Inhibition of CYP2C9 in human liver microsomes incubated for 10 mins in presence of NADPH by LC-MS/MS analysis. In kind it is ADME, Microsome.
Data set [10] is described as follows: AUC last in Sprague-Dawley rat at 10 mg/kg, po measured up to 24 hrs by LC-MS/MS analysis. The conditions noted are these: in vivo. It counts as ADME, organism-based.
Data set [11] deals with T2, Cytochrome P450 2B6 (Homo sapiens, UniProt P20813).
T2 sequence (P20813 whole entry): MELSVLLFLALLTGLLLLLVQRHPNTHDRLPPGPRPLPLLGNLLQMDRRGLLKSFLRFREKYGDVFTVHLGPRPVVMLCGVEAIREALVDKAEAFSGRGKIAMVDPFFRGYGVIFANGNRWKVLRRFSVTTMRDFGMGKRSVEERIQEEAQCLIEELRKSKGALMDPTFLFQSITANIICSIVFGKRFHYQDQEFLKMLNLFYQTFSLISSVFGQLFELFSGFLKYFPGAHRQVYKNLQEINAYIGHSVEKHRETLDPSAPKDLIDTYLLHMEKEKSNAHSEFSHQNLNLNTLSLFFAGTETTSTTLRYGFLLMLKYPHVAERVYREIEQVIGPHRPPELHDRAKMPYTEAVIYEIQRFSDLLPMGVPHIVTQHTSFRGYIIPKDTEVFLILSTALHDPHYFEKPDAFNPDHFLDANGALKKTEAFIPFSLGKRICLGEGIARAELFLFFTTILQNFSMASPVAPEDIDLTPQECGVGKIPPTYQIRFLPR
As to the kind of experiment: Inhibition of CYP2B6 in human liver microsomes incubated for 10 mins in presence of NADPH by LC-MS/MS analysis. In kind it is ADME, Microsome.

Data set [12] addresses Cytochrome P450 3A4 (Homo sapiens, UniProt P08684). As to the kind of experiment: Inhibition of CYP3A4 in human liver microsomes using testosterone as substrate incubated for 5 mins in presence of NADPH by LC-MS/MS analysis. It counts as ADME, Microsome.
Data set [13] concerns the target T3, Cytochrome P450 1A2 (Homo sapiens, UniProt P05177).
T3 sequence (P05177 whole entry): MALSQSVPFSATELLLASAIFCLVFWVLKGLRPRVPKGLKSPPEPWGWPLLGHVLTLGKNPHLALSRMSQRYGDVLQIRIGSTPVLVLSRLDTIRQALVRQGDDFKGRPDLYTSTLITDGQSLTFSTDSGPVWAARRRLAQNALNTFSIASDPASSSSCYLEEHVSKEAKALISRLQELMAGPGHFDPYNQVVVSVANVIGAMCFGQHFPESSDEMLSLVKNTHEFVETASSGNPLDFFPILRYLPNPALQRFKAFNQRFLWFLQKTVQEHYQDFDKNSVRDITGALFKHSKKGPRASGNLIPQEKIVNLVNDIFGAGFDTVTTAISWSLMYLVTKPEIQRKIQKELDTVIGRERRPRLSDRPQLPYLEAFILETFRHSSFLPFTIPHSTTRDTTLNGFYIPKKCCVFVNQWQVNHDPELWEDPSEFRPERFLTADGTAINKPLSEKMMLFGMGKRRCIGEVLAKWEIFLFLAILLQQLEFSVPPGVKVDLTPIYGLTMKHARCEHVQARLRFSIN
As to the kind of experiment: Inhibition of CYP1A2 in human liver microsomes incubated for 10 mins in presence of NADPH by LC-MS/MS analysis. It counts as ADME, Microsome.

In data set [14] the target is Cytochrome P450 2D6 (Homo sapiens, UniProt P10635). Briefly: Inhibition of CYP2D6 in human liver microsomes incubated for 20 mins in presence of NADPH by LC-MS/MS analysis. In kind it is ADME, Microsome.
Chain of Cytochrome P450 2D6 (P10635 whole entry): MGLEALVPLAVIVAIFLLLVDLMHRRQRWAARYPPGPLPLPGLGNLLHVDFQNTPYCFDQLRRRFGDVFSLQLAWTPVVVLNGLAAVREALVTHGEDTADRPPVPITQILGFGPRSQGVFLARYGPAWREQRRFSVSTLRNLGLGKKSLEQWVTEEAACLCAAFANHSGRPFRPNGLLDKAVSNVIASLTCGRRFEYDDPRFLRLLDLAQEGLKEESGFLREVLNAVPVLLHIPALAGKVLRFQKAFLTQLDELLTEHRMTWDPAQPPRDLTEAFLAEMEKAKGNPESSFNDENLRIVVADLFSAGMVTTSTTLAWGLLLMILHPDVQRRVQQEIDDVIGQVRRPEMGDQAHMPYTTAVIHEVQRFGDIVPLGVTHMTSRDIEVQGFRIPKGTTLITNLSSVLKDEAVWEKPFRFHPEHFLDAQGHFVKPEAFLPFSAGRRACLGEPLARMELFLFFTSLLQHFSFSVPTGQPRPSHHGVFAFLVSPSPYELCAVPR
Data set [15] in a line: Cmax in Sprague-Dawley rat at 10 mg/kg, po measured up to 24 hrs by LC-MS/MS analysis. It counts as ADME, organism-based. The conditions noted are these: in vivo.
Data set [16] concerns the target Cytochrome P450 2C19 (Homo sapiens, UniProt P33261). As to the kind of experiment: Inhibition of CYP2C19 in human liver microsomes incubated for 45 mins in presence of NADPH by LC-MS/MS analysis. In kind it is ADME, Microsome.

The structures appear in SMILES notation.

Chain of Voltage-gated inwardly rectifying potassium channel KCNH2 (Q12809 whole entry): as the sequence (Q12809 whole entry) above
Chain of Cytochrome P450 3A4 (P08684 whole entry): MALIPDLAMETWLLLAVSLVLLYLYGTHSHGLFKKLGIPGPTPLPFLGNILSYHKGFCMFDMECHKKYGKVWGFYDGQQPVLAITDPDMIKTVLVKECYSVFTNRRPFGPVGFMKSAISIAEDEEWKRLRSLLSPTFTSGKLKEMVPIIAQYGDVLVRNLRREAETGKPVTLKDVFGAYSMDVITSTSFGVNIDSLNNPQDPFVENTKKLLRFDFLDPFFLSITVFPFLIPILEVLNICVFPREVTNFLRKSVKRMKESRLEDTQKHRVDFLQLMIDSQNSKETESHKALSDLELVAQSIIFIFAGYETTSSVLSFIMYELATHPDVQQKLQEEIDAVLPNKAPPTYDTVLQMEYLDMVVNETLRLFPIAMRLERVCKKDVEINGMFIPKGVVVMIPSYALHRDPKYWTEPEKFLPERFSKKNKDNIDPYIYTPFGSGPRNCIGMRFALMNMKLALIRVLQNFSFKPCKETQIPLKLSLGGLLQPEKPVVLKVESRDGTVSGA
Chain of Cytochrome P450 2C9 (P11712 whole entry): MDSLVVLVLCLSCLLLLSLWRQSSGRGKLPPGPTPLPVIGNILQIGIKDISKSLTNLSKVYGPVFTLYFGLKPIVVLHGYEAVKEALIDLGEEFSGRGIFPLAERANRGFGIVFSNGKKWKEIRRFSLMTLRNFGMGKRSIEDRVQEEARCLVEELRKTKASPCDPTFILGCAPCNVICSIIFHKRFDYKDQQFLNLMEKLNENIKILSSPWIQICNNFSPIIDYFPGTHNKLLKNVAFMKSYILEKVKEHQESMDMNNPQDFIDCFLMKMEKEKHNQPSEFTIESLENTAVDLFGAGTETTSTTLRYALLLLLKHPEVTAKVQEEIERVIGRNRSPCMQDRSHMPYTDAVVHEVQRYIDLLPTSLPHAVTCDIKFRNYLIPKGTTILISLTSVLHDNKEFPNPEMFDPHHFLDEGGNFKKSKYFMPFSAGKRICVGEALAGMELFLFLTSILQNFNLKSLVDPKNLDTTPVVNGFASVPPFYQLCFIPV
Chain of Cytochrome P450 2C19 (P33261 whole entry): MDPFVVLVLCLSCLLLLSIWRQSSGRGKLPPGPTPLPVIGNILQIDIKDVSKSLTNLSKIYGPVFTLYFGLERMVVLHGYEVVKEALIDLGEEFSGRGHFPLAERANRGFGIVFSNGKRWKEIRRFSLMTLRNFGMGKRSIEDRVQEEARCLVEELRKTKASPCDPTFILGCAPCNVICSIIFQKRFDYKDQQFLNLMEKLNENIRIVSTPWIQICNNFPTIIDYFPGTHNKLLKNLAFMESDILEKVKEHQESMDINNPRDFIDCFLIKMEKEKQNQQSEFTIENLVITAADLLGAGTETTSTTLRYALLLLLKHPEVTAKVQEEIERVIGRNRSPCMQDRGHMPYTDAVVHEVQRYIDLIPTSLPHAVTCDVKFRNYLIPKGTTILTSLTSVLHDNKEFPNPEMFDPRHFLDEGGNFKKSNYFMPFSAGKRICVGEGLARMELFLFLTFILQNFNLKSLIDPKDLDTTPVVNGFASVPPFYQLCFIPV

For the compound `Cc1cc2c(Cl)ccc(COc3cccc(-c4ccc(Cc5nc6ccc(C(=O)O)cc6n5C[C@@H]5CCO5)c(F)c4)n3)c2o1`, in data set [1], a half-maximal response (EC50) required 7.55 nM. That is a single-digit nanomolar value.
Regarding `O=C(O)c1ccc2nc(Cc3ccc(-c4cccc(OCc5ccc(Cl)c6ccoc56)n4)cc3F)n(C[C@@H]3CCO3)c2c1`, the inhibition (in general, the change of the read-out against control, counted positive when it falls) at 30 µM in data set [2] was less than 50%. In addition, the IC50 (in general, the concentration that inhibits the measured activity by half) in [3] is greater than 30000 nM.
In [2], `O=C(O)c1ccc2nc(Cc3ccc(-c4cccc(OCc5ccc(Cl)c6cc(Cl)oc56)n4)cc3F)n(C[C@@H]3CCO3)c2c1` had an inhibition at 30 µM of less than 50%. Further, the CLint scaled at 1 µM in data set [4] worked out at 15 mL/min/kg. The IC50 in [3] is greater than 30000 nM. In addition, the half-life (commonly how long it takes for the measured level to halve) at 1 µM in data set [5] turned out to be 1.93 h. For the same compound, the CLhep predicted at 1 µM in data set [6] was 8.7 mL/min/kg.
On to `Cc1cc(-c2cccc(OCc3ccc(C#N)cc3F)n2)ccc1Cc1nc2ccc(C(=O)O)cc2n1C[C@@H]1CCO1`, for which the EC50 (in general, the concentration at which the effect is half-maximal) in data set [1] came out at 13.5 nM.
In the case of `N#Cc1ccc(COc2cccc(C3CCN(Cc4nc5ccc(C(=O)O)cc5n4C[C@@H]4CCO4)CC3)n2)c(F)c1` [DANUGLIPRON], in data set [4], the CLint scaled at 1 µM was found to be 16 mL/min/kg. Besides, the Tmax (as a rule, the time at which the peak concentration occurs) in [7] was 0.63 h. Moreover, the IC50 in [8] was 3340 nM; in data set [9] it was greater than 30000 nM; in data set [11], greater than 30000 nM; in data set [12] it was greater than 30000 nM; in data set [13], greater than 30000 nM; in data set [14], greater than 30000 nM. Moreover, the IC50 in [16] was greater than 30000 nM. For the same compound, the AUC(0-t) (in general, the area under the concentration-time curve up to a stated or last time point) at 24 h in data set [10] was 714 ng·h/mL. Moreover, the half-life at 1 µM in data set [5] stood at 1.8 h. The Cmax – broadly, the peak of the concentration-time curve – in data set [15] worked out at 197 ng/mL. In data set [6], the CLhep predicted at 1 µM is 9.04 mL/min/kg.
In the case of `COCCn1c(Cc2ccc(-c3cccc(OCc4ccc(Cl)c5ccoc45)n3)cc2F)nc2ccc(C(=O)O)cc21`, the EC50 in data set [1] was 359 nM.
As for `N#Cc1ccc(COc2cccc(N3CCC(Cc4nc5ccc(C(=O)O)cc5n4C[C@@H]4CCO4)CC3)n2)c(F)c1`, the midpoint of the response in data set [1], the EC50, lay at 85.5 nM.
Take `Cn1ccc2ccc(COc3cccc(-c4ccc(Cc5nc6ccc(C(=O)O)cc6n5C[C@@H]5CCO5)c(F)c4)n3)cc21`: in [1], it took 198 nM to reach a half-maximal effect (EC50).
The compound `O=C(O)c1ccc2nc(Cc3ccc(-c4cncc(OCc5ccc(Cl)c6ccoc56)n4)cc3F)n(C[C@@H]3CCO3)c2c1` came in with an EC50 in [1] of 70.9 nM. Compared with the last compound, the EC50 is about 2.8-fold lower.
